In patent publication EP2065039A1, “Selective inhibition of Polo-like kinase 1” (Max-Planck-Gesellschaft zur Förderung der Wissenschaften …, priority 2007, dated 2009):
Like-named read-outs stand apart in the source and are kept apart here.

Key:
[1] = molecular target: Lck SH2 domain (Homo sapiens, UniProt P06239); test: Fluorescence polarization specificity assay, Lck SH2 domain; format: binding
From the text: (§1) DNA sequences coding for human Plk1 amino acids 326-603, human Plk2 amino acids 355-685, and human Plk3 amino acids 335-646 comprising the respective polo-box domains were amplified by PCR from plasmid DNA (Plk1) or placenta cDNA (Plk2, Plk3) and cloned into a modified pET28a (Plk1) or a modified pQE70 vector (Plk2 and Plk3). Similarly, nucleotides coding for the […] (FHA) of the kinase Chk2 (amino acids 1-225) and the WW domain of the proline isomerase Pin1 (amino acids 1-162) were amplified by PCR from HeLa S3 and placenta cDNA, respectively, and cloned into a modified pET28a vector. The design of expression plasmids coding for STAT1, STAT3, STATSb, and Lck has been described before and belongs to the knowledge of a skilled person. […] Wild-type and mutant PBD sequences were cloned into a modified pCS2 mammalian expression vector carrying a myc-tag. […]
(§2) Diverse Chemical libraries consisting of 22461 small molecules were tested in a fluorescence polarization assay which analyzes binding between 5-carboxyfluorescein-GPMQST(P03H2)PLNG-OH (final concentration: 10 nM) and the Plk1 polo-box domain (final concentration: 65 nM). […]

[2] = molecular target: T1, Pin1 WW domain (Homo sapiens, UniProt Q13526); test: Fluorescence polarization specificity assay, Pin1 WW domain; format: binding; settings: Pin1 1000 nM; incubation with inhibitor 1 hr at 22 °C prior to addition of fluorophore-labeled peptide; read-out: apparent IC50
T1 construct: proline isomerase Pin1 (amino acids 1-162); made in house; host or cells: E. coli Rosetta BL21 DE3
T1 sequence (Q13526 1-162): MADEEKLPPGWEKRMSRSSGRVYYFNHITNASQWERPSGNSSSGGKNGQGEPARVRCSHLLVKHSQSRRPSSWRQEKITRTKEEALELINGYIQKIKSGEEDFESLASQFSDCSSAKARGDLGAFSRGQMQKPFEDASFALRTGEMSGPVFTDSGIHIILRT
From the text: as §1, §2

[3] = molecular target: T2, STAT3 SH2 domain (Homo sapiens, UniProt P40763); test: Fluorescence polarization specificity assay, STAT3 SH2 domain; format: binding; settings: STAT3 160 nM; incubation with inhibitor 1 hr at 22 °C prior to addition of fluorophore-labeled peptide; read-out: apparent IC50
T2 construct: made in house
T2 sequence (P40763 127-722 limits assumed): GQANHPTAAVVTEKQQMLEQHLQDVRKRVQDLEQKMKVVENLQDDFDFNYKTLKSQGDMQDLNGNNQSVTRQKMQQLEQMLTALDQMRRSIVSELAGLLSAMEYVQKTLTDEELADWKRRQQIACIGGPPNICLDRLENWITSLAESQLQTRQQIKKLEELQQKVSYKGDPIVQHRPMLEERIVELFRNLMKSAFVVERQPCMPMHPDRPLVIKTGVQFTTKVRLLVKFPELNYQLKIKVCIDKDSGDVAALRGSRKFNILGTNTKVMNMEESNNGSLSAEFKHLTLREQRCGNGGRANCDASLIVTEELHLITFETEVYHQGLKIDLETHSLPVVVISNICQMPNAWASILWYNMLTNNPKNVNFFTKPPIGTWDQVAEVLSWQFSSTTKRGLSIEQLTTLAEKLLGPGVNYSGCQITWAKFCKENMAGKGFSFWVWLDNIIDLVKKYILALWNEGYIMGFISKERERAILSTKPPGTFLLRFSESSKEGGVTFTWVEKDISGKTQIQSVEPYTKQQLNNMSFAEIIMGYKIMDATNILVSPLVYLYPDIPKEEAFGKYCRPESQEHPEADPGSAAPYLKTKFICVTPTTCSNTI
From the text: as §1, §2

[4] = molecular target: T3, Plk2 PBD (Homo sapiens, UniProt Q9NYY3); test: Fluorescence polarization specificity assay, Plk2 PBD; format: binding; settings: Plk2 PBD 130 nM; incubation with inhibitor 1 hr at 22 °C prior to addition of fluorophore-labeled peptide; read-out: apparent IC50
T3 construct: human Plk2 amino acids 355-685; made in house; host or cells: E. coli Rosetta BL21 DE3
T3 sequence (Q9NYY3 355-685): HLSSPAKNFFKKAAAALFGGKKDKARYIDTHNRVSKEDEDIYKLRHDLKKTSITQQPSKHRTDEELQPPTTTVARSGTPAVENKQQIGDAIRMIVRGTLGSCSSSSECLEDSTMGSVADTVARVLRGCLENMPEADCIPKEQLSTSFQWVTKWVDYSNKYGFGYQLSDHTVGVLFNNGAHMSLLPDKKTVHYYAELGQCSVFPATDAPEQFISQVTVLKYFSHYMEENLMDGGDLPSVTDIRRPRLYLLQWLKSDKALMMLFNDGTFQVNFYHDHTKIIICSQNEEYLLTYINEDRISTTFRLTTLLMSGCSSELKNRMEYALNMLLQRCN
From the text: as §1, §2

[5] = molecular target: STAT1 SH2 domain (Homo sapiens, UniProt P42224); test: Fluorescence polarization specificity assay, STAT1 SH2 domain; format: binding
Chain of STAT1 SH2 domain (P42224 132-713): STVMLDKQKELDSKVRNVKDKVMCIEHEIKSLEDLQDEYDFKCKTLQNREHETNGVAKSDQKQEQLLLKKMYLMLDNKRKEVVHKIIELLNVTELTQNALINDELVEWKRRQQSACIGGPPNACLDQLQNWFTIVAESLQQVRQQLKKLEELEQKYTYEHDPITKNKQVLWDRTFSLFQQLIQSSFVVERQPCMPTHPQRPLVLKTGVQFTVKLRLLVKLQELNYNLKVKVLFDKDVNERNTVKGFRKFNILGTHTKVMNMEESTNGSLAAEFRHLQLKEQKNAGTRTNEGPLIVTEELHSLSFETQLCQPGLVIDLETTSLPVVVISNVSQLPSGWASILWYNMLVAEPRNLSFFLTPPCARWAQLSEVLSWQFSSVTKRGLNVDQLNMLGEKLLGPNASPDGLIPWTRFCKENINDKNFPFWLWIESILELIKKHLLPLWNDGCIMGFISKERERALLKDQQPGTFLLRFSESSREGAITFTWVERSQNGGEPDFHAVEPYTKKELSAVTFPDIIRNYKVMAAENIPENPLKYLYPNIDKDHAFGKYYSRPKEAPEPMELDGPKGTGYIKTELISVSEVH
From the text: as §1, §2

[6] = molecular target: T4, STAT5 SH2 domain (Homo sapiens, UniProt P51692); test: Fluorescence polarization specificity assay, STAT5 SH2 domain; format: binding; settings: STAT5b 110 nM, incubation with inhibitor 1 hr at 22 °C prior to addition of fluorophore-labeled peptide, read-out: apparent IC50
T4 construct: made in house
T4 sequence (P51692 136-703 limits assumed): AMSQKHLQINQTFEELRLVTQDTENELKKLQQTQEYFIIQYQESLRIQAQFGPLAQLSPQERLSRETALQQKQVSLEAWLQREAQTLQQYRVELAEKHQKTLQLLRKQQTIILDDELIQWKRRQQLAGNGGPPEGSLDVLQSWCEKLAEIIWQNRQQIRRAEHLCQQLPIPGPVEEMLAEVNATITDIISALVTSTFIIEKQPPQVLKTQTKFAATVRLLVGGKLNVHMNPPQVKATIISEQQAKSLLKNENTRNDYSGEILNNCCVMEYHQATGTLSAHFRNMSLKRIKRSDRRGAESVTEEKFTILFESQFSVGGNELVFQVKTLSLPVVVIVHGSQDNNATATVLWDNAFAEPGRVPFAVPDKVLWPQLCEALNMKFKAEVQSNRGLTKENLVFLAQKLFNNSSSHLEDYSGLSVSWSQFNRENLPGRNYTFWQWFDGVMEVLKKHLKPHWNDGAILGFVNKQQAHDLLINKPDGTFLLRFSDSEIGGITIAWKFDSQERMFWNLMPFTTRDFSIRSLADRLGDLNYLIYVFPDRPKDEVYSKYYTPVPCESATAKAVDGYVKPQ
From the text: as §1, §2

[7] = tested on: HeLa cells; test: Mitotic arrest / cell cycle analysis in synchronized HeLa cells (Western blot, flow cytometry); format: cell-based; settings: for mitotic arrest in HeLa cells: HeLa cells synchronized by thymidine block, released into medium containing compound, Figs. 5A-5C
From the text: Figure 1A/B Comparative IC50 inhibition curves with preferred compounds [1] (poloxin) and [14] (thymoquinone, TQ) versus Plk1, Plk2, Plk3, Chk2, Pin1, Stat1, Stat3, Stat5 and Lck. Figure 2 Cellular effects of poloxin and thymoquinone (TQ): Mitotic indices of HeLa cells 14 hrs after release from G1/S block. Figure 3 Distribution of mitotic phases and chromosome congression defects within the metaphase population in the presence of poloxin and thymoquinone (TQ). […]. […] Unsynchronized cells (control), cells synchronized with nocodazol (Noc) or thymidine (Thym), or cells released from thymidine block in the medium containing only DMSO (DMSO) were analyzed for comparison. Figure 5B Analysis of cell cycle distribution by fluorescence-activated flow cytometry. Cells were treated as in 5A. A representative example is shown. Figure 5C Quantification of the cell cycle analysis as shown in 5B (n=3). […]. […] Figure 6B Overexpression of PBD wild-type (wt), but not of the triple mutant PBD FAA, induces mitotic arrest in HeLa cells.
HeLa cells were maintained in Dulbecco's Modified Eagle-Medium (High Glucose) supplemented with 2 mM L-glutamine, 1 mM sodium pyruvate, 10% foetal calf serum, 100 U/mL penicillin, and 100 µg/mL streptomycin (GIBCO and PAA). For the Western blot analysis Fig. 5A, HeLa cells were arrested at the G1/S boundary by thymidine block, and released into thymidine-free medium containing the indicated concentration of compounds at a final DMSO concentration of 0.5%. After 7 hours, medium was replaced with fresh medium which also contained the indicated concentration of compound. […]
For the determination of mitotic indices shown in Fig. 6A, the number of mitotic cells within a population of 200-300 cells was counted. For the determination of the mitotic phase distribution shown in Fig. 6B, populations of approximately 50 mitotic cells were analyzed. […] The DNA content of 30000 cells was determined with a FACScan flow cytometer (BD Biosciences). The data were analyzed with cell cycle analysis Software MODFIT LT 2.0 (Verity Software House). […]

[8] = molecular target: T5, Chk2 FHA domain (Homo sapiens, UniProt O96017); test: Fluorescence polarization specificity assay, Chk2 FHA domain; format: binding; settings: Chk2 240 nM; incubation with inhibitor 1 hr at 22 °C prior to addition of fluorophore-labeled peptide; read-out: apparent IC50
T5 construct: kinase Chk2 (amino acids 1-225); made in house; host or cells: E. coli Rosetta BL21 DE3
T5 sequence (O96017 1-225): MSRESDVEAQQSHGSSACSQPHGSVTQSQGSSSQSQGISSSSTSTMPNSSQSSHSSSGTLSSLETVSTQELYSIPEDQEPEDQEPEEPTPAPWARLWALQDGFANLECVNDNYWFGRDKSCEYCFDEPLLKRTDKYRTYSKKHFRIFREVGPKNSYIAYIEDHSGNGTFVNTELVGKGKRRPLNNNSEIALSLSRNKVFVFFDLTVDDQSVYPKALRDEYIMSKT
From the text: as §1, §2

[9] = molecular target: T6, Plk3 PBD (Homo sapiens, UniProt Q9H4B4); test: Fluorescence polarization specificity assay, Plk3 PBD; format: binding; settings: Plk3 PBD 1875 nM; incubation with inhibitor 1 hr at 22 °C prior to addition of fluorophore-labeled peptide; read-out: apparent IC50
T6 construct: human Plk3 amino acids 335-646; made in house; host or cells: E. coli Rosetta BL21 DE3
T6 sequence (Q9H4B4 335-646): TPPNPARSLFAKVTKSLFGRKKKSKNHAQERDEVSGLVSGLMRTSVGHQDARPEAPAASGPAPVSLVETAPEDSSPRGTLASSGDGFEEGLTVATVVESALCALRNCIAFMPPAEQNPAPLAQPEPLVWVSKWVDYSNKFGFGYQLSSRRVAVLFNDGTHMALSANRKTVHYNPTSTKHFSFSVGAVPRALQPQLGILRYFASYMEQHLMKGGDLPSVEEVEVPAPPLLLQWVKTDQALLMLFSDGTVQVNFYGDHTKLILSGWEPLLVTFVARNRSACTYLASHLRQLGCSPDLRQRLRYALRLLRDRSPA
Procedure: Purified proteins were aliquoted, snap-frozen in liquid nitrogen, and stored at -80°C before use. Binding curve experiments were done for each protein batch before inhibition experiments were started.
The final concentration of buffer components used was: 10 mM Tris, pH 8.0, 50 mM NaCl, 1 mM EDTA, 0.1 % Nonidet P-40, and 10% DMSO. The Plk1 PBD was incubated with compounds for 60 min prior to addition of the fluoropeptide. Screening was performed at room temperature. The following fluorophore-labeled peptides were used for specificity assays: • Plk2: 5-carboxyfluorescein-GPMQTST(PO3H2)PKNG-OH; • Plk3: 5-carboxyfluorescein-GPLATST(PO3H2)PKNG-OH; • Chk2: 5-carboxyfluorescein-GHFDT(PO3H2)YLIRR-OH; • Pin 1: 5-carboxyfluorescein-GWFYS(PO3H2)PRLKK-OH; • STAT1: 5-carboxyfluorescein-GY(PO3H2)DKPHVL-OH; • STAT3: 5-carboxyfluorescein-GY(PO3H2)LPQTV-NH2; • STAT5b: 5-carboxyfluorescein-GY(PO3H2)L VLDKW-OH;Lck:5-carboxyfluorescein-GY(P03H2)EEIP-OH.
Fluorescein-labeled peptides were >95% pure. […] Inhibition curves were fitted using SigmaPlot (SPSS Science Software GmbH).

Chain of Lck SH2 domain (P06239 127-224): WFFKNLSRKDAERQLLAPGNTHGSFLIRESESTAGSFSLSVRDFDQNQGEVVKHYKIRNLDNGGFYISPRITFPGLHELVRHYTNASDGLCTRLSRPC

Row | IC50 ([1]; Lck 40 nM, incubation with inhibitor 1 hr at 22 °C prior to addition of fluorophore-labeled peptide, read-out: apparent IC50) | IC50 ([5]; STAT1 120 nM, incubation with inhibitor 1 hr at 22 °C prior to addition of fluorophore-labeled peptide, read-out: apparent IC50) | IC50 ([6]; value in mM) | SMILES | IC50 [2] | IC50 [3] | IC50 [4] | mitotic arrest in HeLa cells [7] | IC50 [8] | IC50 [1] | IC50 [9] | IC50 [5] | IC50 [6] | toxic side effects in cell cycle analysis ([7]; 25 µM, HeLa cells, flow cytometry, quantification of cell cycle profile unfeasible (Fig. 5C))
1 | > 5000 µM | > 555 µM | > 1 mM | CC1=CC(=O)C(C(C)C)=CC1=NOC(=O)c1ccccc1C [Poloxin] | > 215 µM | > 285 µM | 18.7 ± 1.8 µM | induce mitotic arrest | > 330 µM | – | – | – | – | –
2 | – | – | – | CC1=CC(=O)C(C(C)C)=CC1=O [Thymoquinone, thymoquinone] | 20.4 ± 0.9 µM | 10.9 ± 0.2 µM | 1.9 ± 0.1 µM | induce mitotic arrest | 3.9 ± 0.6 µM | > 5000 µM | 22.4 ± 0.8 µM | > 5000 µM | > 0.24 mM | toxic side effects
